In patent publication EP0129461B1, “Derivatives of isoindoledicarboxylic acids, their preparation and pharmaceutical compositions thereof” (ADIR, priority 1983, dated 1984):

Tested on: angiotensine convertase
Test: Inhibition of circulating angiotensin convertase in the anaesthetised rat (protocol of D.M. Gross et al.), i.v. dosing
Format: in vivo
Conditions: I.V. dose inhibiting 50% of the activity of the angiotensine convertase present in the circulation
From the text: Les composés de l'invention ont été soumis à une étude pharmacologique chez le rat anesthésié selon le protocole décrit par D.M. GROSS et coll. [J. Phar- macol. and Exp. Ther. 216, 552-557, 1981 )].
La dose I.V. capable d'inhiber 50% de l'activité de l'angiotensine convertase présente dans la circulation (DE50) a été déterminée.

Row | SMILES | DE50
1 | CCC[C@H](N[C@@H](C)C(=O)N1CC2CCCCC2[C@@H]1C(=O)O)C(=O)OCC (stereo partly drawn) [Exemple IV, [N-<(S)-éthoxycarbonyl-1 butyl>-(S)alanyl]-2 (R)-carboxy-1 perhydroisoindole] | >300 mg/kg
2 | CCC[C@H](N[C@@H](C)C(=O)N1Cc2ccccc2[C@H]1C(=O)O)C(=O)OCC [Exemple I] | 0,022 mg/kg
3 | CCC[C@H](N[C@@H](C)C(=O)N1Cc2ccccc2[C@@H]1C(=O)O)C(=O)OCC [II, (N-((S)-éthoxycarbonyl-1 butyl)-(S)alanyl]-2 (R)-carboxy-1 isoindoline] | 0,170 mg/kg
4 | CCC[C@H](N[C@@H](C)C(=O)N1CC2CCCCC2[C@H]1C(=O)O)C(=O)OCC (stereo partly drawn) [III, [N-<(S)-éthoxycarbonyl-1 butyl)-(S) alanyl]-2 (S)-carboxy-1 perhydroisoindole, maléate] | 0,020 mg/kg
